Results published in PubChem BioAssay AID1033 (Sanford-Burnham Center for Chemical Genomics, 2008).
The source made the active and inactive calls. How the calls were made is not given here.

These compounds were tested against Chaperone protein DnaK (Escherichia coli (strain K12)) (UniProt P0A6Y8) (assay: binders of DnaK substrate-binding domain, biophysical, NMR, chaperone (AID 1033)). Details: Purified DnaK SBD, NMR ligand binding.
Chain of Chaperone protein DnaK (Escherichia coli (strain K12)) (P0A6Y8 whole entry, looked up, the tested form may be a part): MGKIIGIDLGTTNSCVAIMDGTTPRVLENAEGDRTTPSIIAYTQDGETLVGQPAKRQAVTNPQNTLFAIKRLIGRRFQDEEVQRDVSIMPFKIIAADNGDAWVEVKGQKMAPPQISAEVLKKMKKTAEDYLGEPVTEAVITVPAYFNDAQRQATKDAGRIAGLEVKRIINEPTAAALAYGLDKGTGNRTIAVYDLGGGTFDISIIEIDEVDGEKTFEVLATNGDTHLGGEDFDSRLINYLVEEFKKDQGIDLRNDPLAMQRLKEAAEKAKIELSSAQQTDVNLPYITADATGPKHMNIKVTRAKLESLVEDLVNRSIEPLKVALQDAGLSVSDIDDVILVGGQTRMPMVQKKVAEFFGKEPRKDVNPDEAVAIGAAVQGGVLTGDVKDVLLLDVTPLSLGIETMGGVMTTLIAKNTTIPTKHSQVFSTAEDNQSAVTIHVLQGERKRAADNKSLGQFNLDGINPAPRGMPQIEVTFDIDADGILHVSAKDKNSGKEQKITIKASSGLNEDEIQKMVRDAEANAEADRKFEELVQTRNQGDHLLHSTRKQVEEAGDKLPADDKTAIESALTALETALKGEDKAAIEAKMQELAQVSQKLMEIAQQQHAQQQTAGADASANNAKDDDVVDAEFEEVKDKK
For CCC(C)C(=O)O[C@H]1[C@H](O)C2C(CN3CC(C)CCC3[C@@]2(C)O)C2C[C@]34O[C@]5(O)C(OC(=O)C(C)(O)CC)CC[C@@]3(C)C5C(OC(C)=O)[C@@H](OC(C)=O)C4[C@@]21O (some centres not stated), the Kd was > 4 mM (inactive).
CCc1noc(C)c1C(=O)Nc1ncc(C)s1 was tested, and the Kd was > 4 mM (inactive).
For O=C(NC1=NCCS1)c1cccc(F)c1, the Kd was > 4 mM (inactive).
In the case of Cn1nnc2cc(C(=O)NC3CCCCC3)ccc21, the Kd was > 4 mM (inactive).
For Cc1nn(C)c2sc(C(=O)O)cc12, the Kd was > 4 mM (inactive).
In the case of Cc1cccc(C)c1NC(=O)/C=C/C(=O)O, the Kd was > 4 mM (inactive).
In the case of O=C(NC1CCS(=O)(=O)C1)c1cccs1 (configuration not stated), the Kd was > 4 mM (inactive).
With CC(=O)NN1C(=O)c2cccc3cccc(c23)C1=O the Kd was > 4 mM (inactive).
In the case of O=C(O)/C=C/c1ccc(O)c(O)c1, the Kd was > 4 mM (inactive).
In the case of Cn1c(NCC(=O)O)nc2c1c(=O)[nH]c(=O)n2C, the Kd was > 4 mM (inactive).
COc1cc(-c2coc3cc(O[C@@H]4O[C@H](CO)[C@@H](O)[C@H](O)[C@H]4O)c(OC)c(O)c3c2=O)cc(O)c1OC was tested, and the Kd was > 4 mM (inactive).
With COC1=CC(=O)C=C(OC)C1=O the Kd was > 4 mM (inactive).
COc1c(C(=O)N2CCCC2)ccc2ccccc12 was tested, and the Kd was > 4 mM (inactive).
With CC(C)=NNC(=O)C(=O)NC(C)(C)C the Kd was > 4 mM (inactive).
For NCc1cc2ccccc2s1, the Kd was > 4 mM (inactive).
O=C(O)C1CC(=O)N(Cc2ccco2)C1 (configuration not stated) was tested, and the Kd was > 4 mM (inactive).
CCN1CCC(NC2CCCCNC2=O)CC1 (configuration not stated) was tested, and the Kd was > 4 mM (inactive).
In the case of C=CCCCCCCCCCCCC(O)CC(O)CO (configuration not stated) (tested in a mixture with another compound), the Kd was > 4 mM (inactive).
CC(=O)Nc1nnc(-c2ccncc2)s1 was tested, and the Kd was > 4 mM (inactive).
With Cc1nnc(Nc2cccnc2)[nH]c1=O the Kd was > 4 mM (inactive).
In the case of COc1ccc(-c2coc3cc(OC)cc(OC)c3c2=O)cc1, the Kd was > 4 mM (inactive).
With NC(=O)CSc1nnc2ccc(-c3ccccn3)nn12 the Kd was > 4 mM (inactive).
With CC(=O)c1ccc(-n2ccnc2)cc1 the Kd was > 4 mM (inactive).
With CC(=O)N1CC2(C)CN(C(C)=O)CC(C)(C1)C2 the Kd was > 4 mM (inactive).
For CC1(C)C2CC(=O)[C@]3(C)C(CC[C@@]4(C)[C@H](c5ccoc5)OC(=O)C5OC543)[C@@]2(C)[C@@H](O)C[C@H]1O (some centres not stated), the Kd was > 4 mM (inactive).
In the case of COC(=O)[C@@H]1OC(=O)C2OC23[C@@]1(C)CCC1[C@@]2(C)CCC(=O)C(C)(C)C2C[C@@H](OC(C)=O)[C@]13C (some centres not stated), the Kd was > 4 mM (inactive).
In the case of C=C(C)C1CC=C(CO)CC1 (configuration not stated), the Kd was > 4 mM (inactive).
For CC(=O)c1c(C)nc(-c2cccs2)n1O, the Kd was > 4 mM (inactive).
With COC(=O)C[C@H]1C2(C)CC34OC5(C)O[C@@]6([C@H](OC(C)=O)C(OC(C)=O)[C@]7(C)C(/C(=C(/O)C(C)C)C(=O)O[C@H]7c7ccoc7)[C@@]6(O5)[C@H](OC(C)=O)[C@@]3(O)C2OC(=O)C(C)C)[C@]14C (some centres not stated) the Kd was > 4 mM (inactive).
With O=C(Nc1ccccc1)NC1CCS(=O)(=O)C1 (configuration not stated) the Kd was > 4 mM (inactive).
In the case of COc1cc2c(cc1OC)C1Cc3ccc(OC)c(OC)c3CN1CC2 (configuration not stated), the Kd was > 4 mM (inactive).
With N#Cc1nc(N2CCCCC2)nc(N2CCOCC2)n1 the Kd was > 4 mM (inactive).
With Cc1sc2nc3n(c(=O)c2c1C)CCCS3 the Kd was > 4 mM (inactive).
In the case of CC1(C)C(=O)C=C[C@@]2(C)C1C=C[C@]1(C)C2CC[C@@]2(C)[C@H](c3ccoc3)OC(=O)C3OC321 (some centres not stated), the Kd was > 4 mM (inactive).
CN(C(=O)c1cc2cccnc2n(C)c1=O)c1ccccc1 was tested, and the Kd was > 4 mM (inactive).
With Cn1cnc2ccc([N+](=O)[O-])cc2c1=O the Kd was > 4 mM (inactive).
In the case of Cc1ccc(NC(=O)/C=C2\SC(=O)NC2=O)cc1, the Kd was > 4 mM (inactive).
Cc1cc(C)n2nc(NCc3ccccc3)nc2n1 was tested, and the Kd was > 4 mM (inactive).
With Cc1c(C)[n+](=O)c(-c2cccs2)c(C)n1[O-] the Kd was > 4 mM (inactive).
With O=S1(=O)CCC(NC(=S)Nc2ccccc2)C1 (configuration not stated) the Kd was > 4 mM (inactive).
With O=S(=O)(O)c1nc2ccccc2[nH]1 the Kd was > 4 mM (inactive).
In the case of O=C(O)CCCN1CNC(=S)NC1, the Kd was > 4 mM (inactive).
With Cc1occc1C(=O)Nc1cc(C(C)(C)C)on1 the Kd was > 4 mM (inactive).
CC(=O)Nc1ccc(S(=O)(=O)N2CCN=C2C)cc1 was tested, and the Kd was > 4 mM (inactive).
For NC(=O)c1cc(N)ccc1N1CCCCC1, the Kd was > 4 mM (inactive).
For CNC(C)[C@H](O)c1ccccc1 (some centres not stated), the Kd was > 4 mM (inactive).
COc1ccc2ccc(=O)oc2c1CC=C(C)C was tested, and the Kd was > 4 mM (inactive).
For COc1ccc2nc(N)sc2c1, the Kd was > 4 mM (inactive).
CSc1nc(=O)[nH]c2c1CCC2 was tested, and the Kd was > 4 mM (inactive).
In the case of CCCCn1c(S(=O)(=O)O)nc2ccccc21, the Kd was > 4 mM (inactive).
For CSc1ccc(C2NC(=O)CCC2[N+](=O)[O-])cc1 (configuration not stated), the Kd was > 4 mM (inactive).
O=C(O)/C=C1\NC(=O)c2ccccc21 was tested, and the Kd was > 4 mM (inactive).
With O=C(O)c1ccc2nsnc2c1 the Kd was > 4 mM (inactive).
Cc1ccc(NC(=O)N2CCC(C(N)=O)CC2)cc1 was tested, and the Kd was > 4 mM (inactive).
For CC(=O)Oc1ccc(-c2nc(-c3cccnc3)no2)cc1, the Kd was > 4 mM (inactive).
In the case of CN1CCC(NC(=O)C2CCCO2)CC1 (configuration not stated), the Kd was > 4 mM (inactive).
In the case of CN(C)C(=O)c1ccc(-c2n[nH]c(=O)c3ccccc23)cc1, the Kd was > 4 mM (inactive).
For CN(Cc1nc2ccccc2n1C)S(C)(=O)=O, the Kd was > 4 mM (inactive).
With Cc1nc2nc(-c3ccco3)nn2c(C)c1Cl the Kd was > 4 mM (inactive).
With O=C1CSC(=Nc2ccccc2[N+](=O)[O-])N1 the Kd was > 4 mM (inactive).
For Cc1cc(C(=O)NN2CCOCC2)c(C)o1, the Kd was > 4 mM (inactive).
With NC(=O)c1cccnc1Oc1ccccc1 the Kd was > 4 mM (inactive).
With O=c1c2ccccc2nc2n1CCCCN2 the Kd was > 4 mM (inactive).
In the case of Nc1ccc2[nH]ncc2c1, the Kd was > 4 mM (inactive).
Cn1nnc2c(N3CCC(C(N)=O)CC3)ncnc21 was tested, and the Kd was > 4 mM (inactive).
With O=C(Nc1cccnc1)c1c(F)c(F)c(F)c(F)c1F the Kd was > 4 mM (inactive).
NC(=O)CNC(=O)c1ccccc1 was tested, and the Kd was > 4 mM (inactive).
For Cc1c(-c2ccc(F)cc2)[n+](=O)c2c(n1[O-])CCC2, the Kd was > 4 mM (inactive).
In the case of Cn1c(=O)[nH]c(=O)c2nsnc21, the Kd was > 4 mM (inactive).
In the case of O=C(NC(O)C(=O)c1ccccc1)c1ccco1 (configuration not stated), the Kd was > 4 mM (inactive).
For O=C(O)CC(O)c1nc2ccccc2[nH]1 (configuration not stated), the Kd was > 4 mM (inactive).
In the case of COc1cc2c(cc1-c1cc3cc4ccoc4cc3oc1=O)OCO2, the Kd was > 4 mM (inactive).
CC(=O)NN1C(=O)/C(=C\c2ccc(O)cc2)SC1=S was tested, and the Kd was > 4 mM (inactive).
NC(=O)c1ccccc1NC(=O)C1CC1 was tested, and the Kd was > 4 mM (inactive).
In the case of Nc1cccc2nonc12, the Kd was > 4 mM (inactive).
In the case of NC(=O)CSc1ccc(Br)cc1, the Kd was > 4 mM (inactive).
In the case of O=C(O)c1cn(-c2ccccc2)nc1-c1cccnc1, the Kd was > 4 mM (inactive).
For CNC(=S)N1CCN(C(=O)c2ccco2)CC1, the Kd was > 4 mM (inactive).
Nc1nc(=S)n2c(n1)oc1ccccc12 was tested, and the Kd was > 4 mM (inactive).
In the case of O=C1Cc2ccccc2N1c1ccccc1, the Kd was > 4 mM (inactive).
For NCCCCN=C(N)N, the Kd was > 4 mM (inactive).
With O=C(/C=C/c1ccccc1)c1ccc(O[C@@H]2O[C@H](CO)[C@@H](O)[C@H](O)[C@H]2O)cc1O the Kd was > 4 mM (inactive).
With Cc1cc(C)c(C#N)c(N2CCCC2)n1 the Kd was > 4 mM (inactive).
With Cc1cccc(NC(=O)c2ccccc2C(=O)O)c1 the Kd was > 4 mM (inactive).
For COc1ccc2c(c1)OC[C@@H](Cc1ccc(OC)c(OC)c1)[C@@H]2O, the Kd was > 4 mM (inactive).
In the case of CCc1noc(C)c1C(=O)N1CCCC1, the Kd was > 4 mM (inactive).
In the case of O=[n+]1cc(-c2ccccc2)n([O-])c2c1CCC2, the Kd was > 4 mM (inactive).
COc1ccccc1NC(=O)C1CCCCC1 was tested, and the Kd was > 4 mM (inactive).
In the case of CC(=O)Nc1c(Cl)cnn(-c2ccccc2)c1=O, the Kd was > 4 mM (inactive).
CCOC(=O)C1CCC(=O)c2cccn21 (configuration not stated) was tested, and the Kd was > 4 mM (inactive).
In the case of O=P(O)(Cc1ccccc1)c1ccccc1, the Kd was > 4 mM (inactive).
With O=C(c1ccco1)N1CCn2c1nc1ccccc12 the Kd was > 4 mM (inactive).
In the case of Cc1ccc(C(=O)Nn2cnnc2)s1, the Kd was > 4 mM (inactive).
With COc1ccc(/C=N/n2cn[nH]c2=S)cc1 the Kd was > 4 mM (inactive).
O=C1C=C(Nc2ccc(O)cc2)c2ccccc2C1=O was tested, and the Kd was > 4 mM (inactive).
For CC(=O)CC1(O)C(=O)Nc2ccccc21 (configuration not stated), the Kd was > 4 mM (inactive).
In the case of c1ccc(-c2noc(-c3ccc4c(c3)OCO4)n2)nc1, the Kd was > 4 mM (inactive).
CCN1CC2(C)CC[C@H](OC)[C@]34C2[C@H](O)C2(OCO[C@@]25C[C@H](OC)[C@H]2C[C@]3(O)C5[C@H]2O)C14 was tested, and the Kd was > 4 mM (inactive).
For Cc1nnc2n(c1=O)N=C(c1ccccc1)CS2, the Kd was > 4 mM (inactive).
For CCCNC(=O)c1cnc2n(c1=O)CCS2, the Kd was > 4 mM (inactive).
O=C(C1CCNCC1)N1CCCCCC1 was tested, and the Kd was > 4 mM (inactive).
In the case of Nc1cccnc1Oc1ccc(F)cc1F, the Kd was > 4 mM (inactive).
In the case of CNc1nnc(Cc2csc(N)n2)s1, the Kd was > 4 mM (inactive).
For Cc1nnc(N2CCN(c3ccccc3)CC2)[nH]c1=O, the Kd was > 4 mM (inactive).
CC[C@H](CCC(C)[C@H]1CCC2C3CCC4C[C@@H](O)CC[C@]4(C)C3CC[C@@]21C)C(C)C (some centres not stated) was tested, and the Kd was > 4 mM (inactive).
In the case of CC1(C)NCCN2C(=O)CSC21 (configuration not stated), the Kd was > 4 mM (inactive).
In the case of CCOC(=O)c1csc(N)n1, the Kd was > 4 mM (inactive).
In the case of Nc1nc(N)nc(N2C(=O)c3ccccc3C2=O)n1, the Kd was > 4 mM (inactive).
With Cn1nnc2cc(C(=O)NC3=NCCS3)ccc21 the Kd was > 4 mM (inactive).
With CC(=O)NC(=S)Nc1ccccc1N1CCOCC1 the Kd was > 4 mM (inactive).
In the case of O=C(O)C(CO)c1ccccc1 (configuration not stated), the Kd was > 4 mM (inactive).
For CSc1ncnc2nc[nH]c12, the Kd was > 4 mM (inactive).
In the case of O=C(O)c1cccc2c1OCC2, the Kd was > 4 mM (inactive).
For NC1CCN(Cc2ccccc2)CC1, the Kd was > 4 mM (inactive).
In the case of CC(C)=CC1C(CO)C1(C)C (configuration not stated), the Kd was > 4 mM (inactive).
In the case of O=C(O)c1cnc2sc3ccccc3n2c1=O, the Kd was > 4 mM (inactive).
O=C1C(=O)N(CN2CCN(CCO)CC2)c2ccccc21 was tested, and the Kd was > 4 mM (inactive).
